According to patent US20260062426A1, “CYCLIN DEPENDENT KINASE DEGRADERS AND METHODS OF USE THEREOF” (Differentiated Therapeutics Inc, priority 2023, published 2026):

What was measured:
Format in all cases: cell-based
[1] = target: T1, CDK2 (Homo sapiens, UniProt P24941); assay: CDK2 HIBIT PQ (protein quantification), degradation; settings: for CDK2 HIBIT PQ Max (%): Max = Maximum; for DC50: PQ = Protein Quantification
T1 construct: host or cells: HEK293
Method in brief: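 Maximal degradation and DC50 were obtained from luminescence readings of HEK293 cells expressing HiBiT-tagged CDK2. The cells, grown in DMEM with 10% FBS, were seeded at 1.6×10^5 cells/well in 50 uL in 384-well plates and incubated overnight at 37° C and 5% CO2 before 6 hours of compound treatment. HiBiT reagent (Nano-Glo HiBiT lytic buffer, lytic substrate, LgBiT protein) was then added at 20 μL, and plates were shaken for 20 minutes at room temperature before reading on an EnVision, against a high control of 0.1% DMSO and a low control of medium only.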

[2] = target: T2, CDK9 (Homo sapiens, UniProt P50750); assay: CDK9 HIBIT PQ (protein quantification), degradation; settings: for Dmax: Max = Maximum; for DC50: PQ = Protein Quantification
T2 construct: host or cells: HEK293
Method in brief: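 Maximal degradation, Dmax and DC50 come from HiBiT assay readings of CDK9 protein in compound-treated HEK293 cells that express HiBiT-tagged CDK9. The cells were grown in DMEM with 10% FBS and seeded at 1.6×10^5 cells/well in 50 uL in 384-well plates before overnight incubation at 37° C and 5% CO2. Cells treated with 0.1% DMSO set the high control, and medium only set the low control.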

[3] = target: T3, CCNE1 (Homo sapiens, UniProt P24864+P24941); assay: CCNE1 HIBIT PQ (protein quantification), degradation; settings: for CCNE1 HIBIT PQ Max (%): Max = Maximum; for DC50: PQ = Protein Quantification
T3 construct: host or cells: HEK293
Method in brief: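 HEK293 cells carrying HiBiT-tagged CCNE1 were grown in EMEM with 10% FBS and seeded in 384-well plates at 1.6×10⁵ cells/well in 50 uL, then incubated overnight at 37° C and 5% CO₂. Compound treatment lasted 6 hours, and CCNE1 protein was then measured with a HiBiT assay. High control was 0.1% DMSO-treated cells and low control was culture medium only. Maximal degradation and DC50 were derived from these readings.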

T2 sequence (P50750 whole entry): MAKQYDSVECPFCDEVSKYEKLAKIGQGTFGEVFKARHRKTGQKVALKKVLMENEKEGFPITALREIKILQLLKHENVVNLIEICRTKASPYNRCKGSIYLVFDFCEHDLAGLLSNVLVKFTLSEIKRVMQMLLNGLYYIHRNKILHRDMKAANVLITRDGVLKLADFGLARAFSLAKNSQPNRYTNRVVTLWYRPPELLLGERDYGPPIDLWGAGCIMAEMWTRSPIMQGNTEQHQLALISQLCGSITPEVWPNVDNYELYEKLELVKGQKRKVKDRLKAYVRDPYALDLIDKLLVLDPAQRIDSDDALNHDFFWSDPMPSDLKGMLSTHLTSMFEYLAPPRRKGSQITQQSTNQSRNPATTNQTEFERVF

| CDK2 HIBIT PQ Max (%) [1] [%] | DC50 [1] [nM] | Dmax [2] [%] | DC50 [2] [nM] | CCNE1 HIBIT PQ Max (%) [3] [%] | DC50 [3] [nM] | Compound |
| --- | --- | --- | --- | --- | --- | --- |
| 92 | 0.1 | 69 | 1.87 | 70 | 0.93 | CC(C)Oc1c(-c2cn[nH]c2)ncn2nc(Nc3ccc(S(=O)(=O)N(C)CCCN4CCN(c5ccc6c(c5)n(C)c(=O)n6C5CCC(=O)NC5=O)CC4)cc3F)nc12 (stereo not shown) [Compound 66] |
| 71 | 0.5 | 6 |  | 18 |  | CC(C)Oc1c(-c2cn[nH]c2)ncn2nc(Nc3ccc(S(=O)(=O)N(C)CCCN4CC5CC4CN5c4ccc5c(c4)n(C)c(=O)n5C4CCC(=O)NC4=O)cc3F)nc12 (stereo not shown) [Compound 69] |
| 78 |  | 29 |  | 35 |  | CC(C)Oc1c(-c2cn[nH]c2)ncn2nc(Nc3ccc(S(=O)(=O)N4CCC(CN5CCC(c6ccc7c(c6)n(C)c(=O)n7C6CCC(=O)NC6=O)CC5)C4)cc3F)nc12 (stereo not shown) [Compound 71] |
| 88 |  | 71 | 0.5 | 64 | 0.17 | CC(C)Oc1c(-c2cn[nH]c2)ncn2nc(Nc3ccc(S(=O)(=O)N4CCCC(CN5CCC(c6ccc7c(c6)n(C)c(=O)n7C6CCC(=O)NC6=O)CC5)C4)cc3F)nc12 (stereo not shown) [Compound 72] |
| 79 | 0.8 | 31 |  | 27 |  | CC(C)Oc1c(-c2cn[nH]c2)ncn2nc(Nc3ccc(S(=O)(=O)c4ccc(CN5CCC(c6ccc7c(c6)n(C)c(=O)n7[C@H]6CCC(=O)NC6=O)CC5)o4)cc3F)nc12 [Compound 73] |
| 91 | 0.7 | 88 | 7.04 | 71 | 3.57 | CC(C)Oc1c(-c2cn[nH]c2)ncn2nc(Nc3ccc(S(=O)(=O)N4CC5C4CCN5CC4CCN(c5cccc6c5n(C)c(=O)n6C5CCC(=O)NC5=O)CC4)cc3F)nc12 (stereo not shown) [Compound 74] |
| 85 | 4.7 | 55 | 92.5 | 28 |  | CC(C)Oc1c(-c2cn[nH]c2)ncn2nc(Nc3ccc(S(=O)(=O)N4CCC5(CCN(CC6CN(c7cccc8c7n(C)c(=O)n8C7CCC(=O)NC7=O)C6)C5)C4)cc3F)nc12 (stereo not shown) [Compound 75] |
| 95 | 12.4 | 37 |  | 82 | 34.4 | CC(C)Oc1c(-c2cn[nH]c2)ncn2nc(Nc3ccc(S(=O)(=O)c4cccc(CC5CC(c6ccc7c(c6)CN(C6CCC(=O)NC6=O)C7=O)C5)c4)cc3F)nc12 (stereo not shown) [Compound 77, 3-(5-(3-(3-((3-fluoro-4-((8-isopropoxy-7-(1H-pyrazol-4-yl)-[1,2,4]triazolo[1,5-c]pyrimidin-2-yl)amino)phenyl)sulfonyl)benzyl)cyclobutyl)-1-oxoisoindolin-2-yl)piperidine-2,6-dione] |
| 85 | 2 | 12 |  | 36 |  | CC(C)Oc1c(-c2cn[nH]c2)ncn2nc(Nc3ccc(S(=O)(=O)c4cccc(CN5CC(c6ccc7c(N8CCC(=O)NC8=O)nn(C)c7c6)C5)c4)cc3F)nc12 [Compound 78] |

| Compound | CDK2 HIBIT PQ Max (%) [1] [%] | DC50 [1] [nM] | Dmax [2] [%] | DC50 [2] [nM] | CCNE1 HIBIT PQ Max (%) [3] [%] | DC50 [3] [nM] |
| --- | --- | --- | --- | --- | --- | --- |
| CC(C)Oc1c(-c2cn[nH]c2)ncn2nc(Nc3ccc(S(=O)(=O)N(C)CCCN4C5CCC4CN(c4ccc6c(c4)n(C)c(=O)n6C4CCC(=O)NC4=O)C5)cc3F)nc12 (stereo not shown) [Compound 68] | 90 | 0.1 | 73 | 2.76 | 67 | 1.05 |
| CC(C)Oc1c(-c2cn[nH]c2)ncn2nc(Nc3ccc(S(=O)(=O)N(C)CCCN4C5CC4CN(c4ccc6c(c4)n(C)c(=O)n6C4CCC(=O)NC4=O)C5)cc3F)nc12 (stereo not shown) [Compound 70] | 61 | 0.3 | 9 |  | 20 |  |
